Usually pIC50 stands for the IC50 on a negative log10 scale, so that one unit is a factor of ten.

Here are results for one molecule from ChEMBL document CHEMBL4819020, “Discovery of [1,2,4]triazolo[1,5-a]pyrimidines derivatives as potential anticancer agents” (Eur J Med Chem, 2021).

Data set [1] in a line: Toxicity in mouse assessed as effect on heart at 2 mg/kg, ig measured after 2 weeks by H and E staining based microscopic method. The settings on record: in vivo, po, 336 h. It is filed as organism-based.
Data set [2] has as its system MGC-803. Nature of the data set: Induction of cell cycle arrest in human MGC-803 cells assessed as increase in p27 expression at 0.75 to 3 uM measured after 24 hrs by western blot assay. The conditions noted are these: dose 0.75-3 µM. The class given is functional, cell-based. For orientation: Immunoblotting shows a protein as a band on a membrane.
In data set [3] the test system is MGC-803. Nature of the data set: Induction of apoptosis in human MGC-803 cells assessed as early apoptotic cells at 1.5 uM measured after 48 hrs by Annexin V-FITC/PI staining based flow cytometry method (reference value: 0.992 %). The class given is functional. (Flow cytometry measures light scatter and fluorescence of single cells or particles in a stream.)
Data set [4] concerns MGC-803. Nature of the data set: Antiproliferative activity against human MGC-803 cells assessed as cell viability measured at 0.75 to 3 uM by MTT assay. The class given is functional, cell-based. The conditions noted are these: dose 0.75-3 µM, time 24-72 hrs, TDE = time-dependent effect.
Data set [5] deals with MGC-803. Nature of the data set: Induction of apoptosis in human MGC-803 cells assessed by cell rounding at 0.75 to 3 uM measured after 48 hrs by Hoechst 33342 staining based microscopic method. It is filed as functional. The conditions noted are these: dose 0.75-3 µM.
The test system of data set [6] is MGC-803. Description: Induction of apoptosis in human MGC-803 cells assessed as viable cells at 0.75 uM measured after 48 hrs by Annexin V-FITC/PI staining based flow cytometry method (reference value: 92.3 %). It is filed as functional. The conditions noted are these: read-out: Activity.
Data set [7] relates to MGC-803. Nature of the data set: Induction of apoptosis in human MGC-803 cells assessed as late apoptotic cells at 0.75 uM measured after 48 hrs by Annexin V-FITC/PI staining based flow cytometry method (reference value: 3.10 %). The class given is functional.
Data set [8] is described as follows: Toxicity in mouse assessed as mouse survival at 2 mg/kg, ig measured after 2 weeks. It is filed as organism-based. The conditions noted are these: in vivo, po, 336 h.
Data set [9] relates to MGC-803. Description: Antiproliferative activity against human MGC-803 cells assessed as inhibition of cell proliferation measured after 72 hrs by MTT assay. It is filed as functional, cell-based. The settings on record: MGC-803, 72 h.
In data set [10] the test system is MGC-803. Nature of the data set: Cell cycle arrest in human MGC-803 cells assessed as accumulation of cells in S phase at 1.5 uM measured after 24 hrs by PI staining based flow cytometry assay (reference value: 18.03%). The class given is functional.
Data set [11] is described as follows: Toxicity in mouse assessed as effect on liver at 2 mg/kg, ig measured after 2 weeks by H and E staining based microscopic method. It is filed as organism-based. The settings on record: in vivo, po, 336 h.
In data set [12] the test system is MGC-803. Description: Induction of apoptosis in human MGC-803 cells assessed as necrotic cells at 0.75 uM measured after 48 hrs by Annexin V-FITC/PI staining based flow cytometry method (reference value: 3.60 %). It is filed as functional.

pIC50: −log10 of the molar value.

On to `Cc1cc(Nc2ccn(Cc3nc(C)c4ccccc4n3)n2)n2nc(SCc3ccc(Br)cc3)nc2n1`, for which the Activity result was “Non-Toxic” in data set [1]; “Dose-Dependent Effect” with MGC-803 [2]; 6.85% in the data set with MGC-803 [3]; “Tde” in the data set with MGC-803 [4]; “Dose-Dependent Effect” with MGC-803 [5]; 5.23% with MGC-803 [7]. In addition, the Activity entry is “Non-Toxic” in data set [8], 20.75% in the data set with MGC-803 [10], “Non-Toxic” in [11] and 3.46% in the data set on MGC-803 [12]. Also, the viability at 0.75 µM with MGC-803 [6] turned out to be 89.1%. The pIC50 with MGC-803 [9] is 6.02.
